Data published in patent publication US20050112573A1, “Method of detecting toxic substance” (priority 2001, published 2005).

Tested on: yeast genes (level of expressed mRNA)
Experiment: DNA chip analysis of expressed mRNA of yeast genes after 2 h culture with a toxic chemical substance
Type: cell-based, Saccharomyces cerevisiae S288C
Summary of the method: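 Values are treated-to-control fluorescence ratios from a whole-yeast-genome DNA chip (65° C, over 12 h hybridization) using Cy3/Cy5-labelled cDNA from mRNA. Log-phase S288C cells in YPD at 25° C were exposed 2 h to a toxicant at sublethal, growth-inhibiting concentration.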

## S=C([S-])NCCNC(=S)[S-].[Zn+2] [(11), zinc N,N′-ethylenebis(dithiocarbamate)]
Gene YGR282C
  level of expressed mRNA in the presence of chemical substance/in its absence: 1.5
Gene YGR293C
  The level of expressed mRNA in the presence of chemical substance/absence: YGR293C: 0.6
Gene YHL006C
  The level of expressed mRNA in the presence of chemical substance/absence: YHL006C: 0.7
Gene YHL021C
  The level of expressed mRNA in the presence of chemical substance/absence: YHL021C: 1.4
Gene YHL037C
  The level of expressed mRNA in the presence of chemical substance/absence: YHL037C: 1.0
Gene YHR037W
  level of expressed mRNA in the presence of chemical substance/in its absence: 1.7
Gene YHR083W
  The level of expressed mRNA in the presence of chemical substance/absence: YHR083W: 1.3
Gene YHR092C
  level of expressed mRNA in the presence of chemical substance/in its absence: 1.5
Gene YHR095W
  The level of expressed mRNA in the presence of chemical substance/absence: YHR095W: 1.3
Gene YHR105W
  The level of expressed mRNA in the presence of chemical substance/absence: YHR105W: 0.7
Gene YHR134W
  The level of expressed mRNA in the presence of chemical substance/absence: YHR134W: 0.7
Gene YHR137W
  level of expressed mRNA in the presence of chemical substance/in its absence: 0.6
Gene YHR180W
  The level of expressed mRNA in the presence of chemical substance/absence: YHR180W: 1.4
Gene YHR181W
  The level of expressed mRNA in the presence of chemical substance/absence: YHR181W: 1.3
Gene YHR190W
  level of expressed mRNA in the presence of chemical substance/in its absence: 1.3
Gene YIL033C
  level of expressed mRNA in the presence of chemical substance/in its absence: 1.8
Gene YIL108W
  The level of expressed mRNA in the presence of chemical substance/absence: YIL108W: 1.2
Gene YIL127C
  The level of expressed mRNA in the presence of chemical substance/absence: YIL127C: 0.9
Gene YIL154C
  level of expressed mRNA in the presence of chemical substance/in its absence: 1.2
Gene YIL165C
  The level of expressed mRNA in the presence of chemical substance/absence: YIL165C: 1.1
Gene YIL167W
  level of expressed mRNA in the presence of chemical substance/in its absence: 1.9
Gene YIR035C
  level of expressed mRNA in the presence of chemical substance/in its absence: 1.3
Gene YJL017W
  The level of expressed mRNA in the presence of chemical substance/absence: YJL017W: 1.4
Gene YJL032W
  The level of expressed mRNA in the presence of chemical substance/absence: YJL032W: 1.8
Gene YJL037W
  The level of expressed mRNA in the presence of chemical substance/absence: YJL037W: 1.6
Gene YJL049W
  The level of expressed mRNA in the presence of chemical substance/absence: YJL049W: 1.5
Gene YJL088W
  level of expressed mRNA in the presence of chemical substance/in its absence: 0.9
Gene YJL097W
  The level of expressed mRNA in the presence of chemical substance/absence: YJL097W: 1.5
Gene YJL132W
  level of expressed mRNA in the presence of chemical substance/in its absence: 1.4
Gene YJL196C
  level of expressed mRNA in the presence of chemical substance/in its absence: 2.3
Gene YJR030C
  The level of expressed mRNA in the presence of chemical substance/absence: YJR030C: 0.8
Gene YJR044C
  The level of expressed mRNA in the presence of chemical substance/absence: YJR044C: 1.9
Gene YJR142W
  level of expressed mRNA in the presence of chemical substance/in its absence: 0.9
Gene YJR148W
  level of expressed mRNA in the presence of chemical substance/in its absence: 0.6
Gene YJR159W
  level of expressed mRNA in the presence of chemical substance/in its absence: 2.2
Gene YKL051W
  The level of expressed mRNA in the presence of chemical substance/absence: YKL051W: 1.8
Gene YKL059C
  The level of expressed mRNA in the presence of chemical substance/absence: YKL059C: 0.9
Gene YKL067W
  level of expressed mRNA in the presence of chemical substance/in its absence: 1.8
Gene YKL090W
  The level of expressed mRNA in the presence of chemical substance/absence: YKL090W: 2.3
Gene YKL094W
  The level of expressed mRNA in the presence of chemical substance/absence: YKL094W: 1.3
Gene YKL097C
  The level of expressed mRNA in the presence of chemical substance/absence: YKL097C: 0.6
Gene YKL100C
  The level of expressed mRNA in the presence of chemical substance/absence: YKL100C: 1.6
Gene YKR039W
  level of expressed mRNA in the presence of chemical substance/in its absence: 1.9
Gene YKR040C
  The level of expressed mRNA in the presence of chemical substance/absence: YKR040C: 0.8
Gene YLR097C
  The level of expressed mRNA in the presence of chemical substance/absence: YLR097C: 1.7
Gene YLR142W
  level of expressed mRNA in the presence of chemical substance/in its absence: 3.8
Gene YLR180W
  level of expressed mRNA in the presence of chemical substance/in its absence: 1.7
Gene YLR226W
  The level of expressed mRNA in the presence of chemical substance/absence: YLR226W: 0.8
Gene YLR273C
  level of expressed mRNA in the presence of chemical substance/in its absence: 1.4
Gene YLR300W
  level of expressed mRNA in the presence of chemical substance/in its absence: 1.0
Gene YLR307W
  level of expressed mRNA in the presence of chemical substance/in its absence: 0.8
Gene YLR338W
  The level of expressed mRNA in the presence of chemical substance/absence: YLR338W: 0.9
Gene YLR339C
  The level of expressed mRNA in the presence of chemical substance/absence: YLR339C: 1.6
Gene YLR392C
  The level of expressed mRNA in the presence of chemical substance/absence: YLR392C: 1.4
Gene YLR415C
  The level of expressed mRNA in the presence of chemical substance/absence: YLR415C: 0.8
Gene YLR427W
  The level of expressed mRNA in the presence of chemical substance/absence: YLR427W: 0.8
Gene YML013W
  The level of expressed mRNA in the presence of chemical substance/absence: YML013W: 1.1
